Laboratory results published in publication PMC9894685, “Abscisic acid agonists suitable for optimizing plant water use” (Frontiers in Plant Science, 2023).

Columns and labels:
RCAR1/PYL9-ABI2 = experiment: Yeast ABA signal pathway LUC reporter, RCAR1-ABI2; type: cell-based, Arabidopsis thaliana
Procedure: The yeast cultivation and the life luciferase assay were performed as described ([Ruschhaupt et al., 2019]). Briefly, the reporter yeast expressing an ABA-dependent luciferase gene (LUC) was transformed with different combinations of ABA signaling components as indicated. Golden gate cloning ([Binder et al., 2014]) was used to construct pYEAST_LII_5‐6_CEN_URA vector with TDH3 promoter and TDH1 terminator (tTDH1), pYEAST_LII_1‐2_CEN_LEU vector with GK1 promoter and tTDH1, and pYEAST_LII_3‐4_CEN_TRP with the GAL1 promoter (pGAL1) and tTDH1 to express RCARs, PP2Cs, and OST1 (SnRK2.6), respectively ([Ruschhaupt et al., 2019]). […]
Colonies of freshly transformed cells were inoculated in 0.5 mL supplemented synthetic dextrose (SD) medium and incubated at 30°C in a gyratory shaker (Thermoshake-THO500, Gerhardt, Königswinter, Germany) at 200 rpm for 16-18 h. […] Light emission of yeasts was detected in a HIDEX plate luminometer (HIDEX, Turku, Finland) after injection of 100 µL freshly prepared luciferin substrate (1 mM D-luciferin, Promega) provided in 100 mM citric acid, pH 3 ([Leskinen et al., 2003]) for 5 s and was corrected for background. The LUC activity was normalized to the cell density (OD600) measured in 96-well flat plates (Sarstedt, Nümbrecht, Germany). […]

RCAR11-ABI2 = system: T1, RCAR11-ABI2; experiment: In vitro phosphatase assay, ABI2 with RCAR11; type: biochemical, Arabidopsis thaliana; conditions: 100 nM ABI2, 200 nM RCAR11
T1 construct: 6xHis (N); made in house; host or cells: Escherichia coli BL21
Procedure: (§1) Expression, purification, and analysis of RCAR and PP2C proteins were performed essentially as described ([Ruschhaupt et al., 2019]). Briefly, the ABA receptors RCAR1, RACR8, and RCAR11 were expressed with an aminoterminal histidine tag using the pSEVA431_LII_6xHIS::RCAR1/RCAR8/RCAR11. ABA coreceptors were expressed as histidine-tagged fusions with the maltose-binding protein using the pSEVA431_LII_6xHIS::MBP::ABI2/HAB1. All constructs were transformed and expressed in Escherichia coli strain BL21 and purified to homogeneity according to supplier’s instruction (GE Healthcare, Chicago, USA). The receptor assay was performed with 100 nM PP2C and a two-fold molar excess of RCAR. Values are means ± SD of three replicates. […] The maximum inhibition was set to 100% in the figures. The phosphatase activity was measured using 4-methylumbelliferyl-phosphate as a substrate ([Meinhard and Grill, 2001]). The increase in fluorescence was recorded over 25 min with excitation and emission wavelengths at 360 and 460 nm, respectively, using a Synergy 2 plate reader (Bio-Tec, Winooski, USA).

RCAR8-ABI2 = experiment: In vitro phosphatase assay, ABI2 with RCAR8; type: biochemical, Arabidopsis thaliana; conditions: 100 nM ABI2, 200 nM RCAR8
Procedure: as §1

RCAR1-HAB1 = molecular target: T2, RCAR1-HAB1; experiment: In vitro phosphatase assay, HAB1 with RCAR1; type: biochemical, Arabidopsis thaliana; conditions: 100 nM HAB1, 200 nM RCAR1
T2 construct: 6xHis (N); made in house; host or cells: Escherichia coli BL21
Procedure: as §1

Arabidopsis plants [1] = experiment: Foliar administration and thermal imaging of leaf temperature (transpiration), Arabidopsis; type: in vivo, Arabidopsis thaliana
Arabidopsis plants [2] = experiment: Progressive drought experiment: growth, water consumption, WUE; type: in vivo, Arabidopsis thaliana
Procedure: The progressive drought experiment was performed as described ([Yang et al., 2016]). Briefly, 18-day-old Arabidopsis plantlets grown under well-watered and short-day conditions (8 h light with 150 µmol m^-2 s^-1 PAR, 22°C, 50% relative humidity, and 16 h dark with 17°C, 60% relative humidity) were transferred to 0.2 L pots loaded with water-saturated soil (33.4 ± 0.4 g dry soil with 148 ± 2 g water). At the onset of the progressive drought (day 0), water was withheld, and a sealed soil surface prevented evaporation. A slowly increasing water deficit was achieved by transpirational water loss from plants. The progressive drought experiment lasted for eight weeks until mock-treated plants had consumed all the plant-usable water. […] For measuring growth and water consumption, leaf rosettes were regularly photographed, and the pots were weighed. The projected leaf area of Arabidopsis rosettes was analyzed by using Photoshop Elements software (Adobe, San Jose, USA). The consumed water was calculated as the difference in pot weight between day 0 and the designated days. The retained water was expressed as the difference between the pot weight at the end of the drought (day 57) and the weight of the loaded dry soil. Above-ground material was harvested at day 57, and the biomass was determined after drying the material for three days at 60°C to achieve constant weight. WUE was calculated as the ratio of above-ground dry biomass to consumed water. The data for the mock- and ABA-treated plants in the progressive drought experiment were already published ([Yang et al., 2019]).

Compound: CCC(=C/C(=O)O)/C=C/C(O)(C(C)C)C1(C#N)CC1 (stereo not drawn) [CCP2]
- Higher exogenous concentration required for reporter expression comparable to 1 µM ABA (RCAR1/PYL9-ABI2): > 30 x
- Inhibition of ABI2 compared to ABA (RCAR11-ABI2): comparable to ABA
- IC50 relative to ABA (fold higher) (RCAR8-ABI2): ~30 fold
- IC50 with HAB1 compared to the ABI2 results (RCAR1-HAB1): lower IC50 value
- Efficiency in minimizing transpiration compared to ABA (Arabidopsis plants [1]; foliar application): by an order of magnitude more efficient than ABA
- ABA concentration achieving a temperature increase similar to 10 µM of the CCP (Arabidopsis plants [1]; one day after application): about 100 µM
- Activity and persistence of minimized transpiration compared to ABA (Arabidopsis plants [1]; single application 100 µM, recorded for 19 days): more active and persistent than ABA
- WUE increase (Arabidopsis plants [2]; 30 µM solute concentration): ~50%
- Growth of leaf rosettes compared to mock (Arabidopsis plants [2]; 30 µM, three administrations): growth reduction
- Plant-usable soil water transpired (Arabidopsis plants [2]; end of drought experiment): ~70%
- WUE improvement compared to controls (Arabidopsis plants [2]; end of drought experiment): up to 50%
- Restriction of water consumption (Arabidopsis plants [2]; single administration, for two weeks): approximately 30%
